What was measured:
[1] = biological target: T1, HIV-1 protease V82F/I84V (Human immunodeficiency virus type 1 group M subtype B, UniProt P04585, I572V/V570F); assay: continuous fluorogenic HIV protease assay; assay type: biochemical; conditions: V82F/I84V (Table 7)
T1 construct: the proteases of wild-type HIV-1 (WT) and various mutant enzymes
Description: (§1) This example describes the protocol for the sensitive continuous fluorogenic assay for HIV protease of the present invention and its application. […] The inhibition constant for wild-type HIV-1, Kimnt/Kiwt ratio, and vitality were measured.
(§2) The reaction was initiated by the addition of 5 μl of substrate stock solution in water. […] The initial rate of hydrolysis was calculated by second degree polynomial fit using SLM AB2 2.0 operating software.
(§3) For inhibition studies, inhibitors were prepared as stock solutions at different concentrations in dimethylsulfoxide. […] The reaction was initiated by the addition of 5 μl of substrate stock solution in water. For data analysis, the mathematical model for tight-binding inhibitors was used.

[2] = biological target: HIV-1 protease V82F/I84V; assay: continuous fluorogenic HIV protease assay; assay type: biochemical; conditions: for KI-wt/KI-mut: V82F/I84V (Table 7); for Fitness: V82F/I84V relative to WT (Table 7)
Description: as §1, §2, §3

[3] = biological target: T2, wild-type HIV-1 (WT) protease (Human immunodeficiency virus type 1 group M subtype B, UniProt P04585); assay: continuous fluorogenic HIV protease assay; assay type: biochemical; conditions: WT (Table 7)
T2 construct: the proteases of wild-type HIV-1 (WT)
Description: as §1, §2, §3

[4] = biological target: T3, HIV-1 protease G48V/V82A (Human immunodeficiency virus type 1 group M subtype B, UniProt P04585, G536V/V570A); assay: continuous fluorogenic HIV protease assay; assay type: biochemical; conditions: for KI-wt/KI-mut / Ki: G48V/V82A; for Fitness: G48V/V82A relative to WT
T3 construct: proteases containing the deleterious drug resistance associated mutations V82F/I84V and G48V/V82A
Description: This example describes the protocol for the sensitive continuous fluorogenic assay for HIV protease of the present invention and its application. […] 21702-1201, upon written request. The inhibition constant for wild-type HIV-1, Kimnt/Kiwt ratio, and vitality were measured. (See Gulnik et al., Biochemistry, 34, 9282-9287 (1995). Protease activity was measured using the fluorgenic substrate Lys-Ala-Arg-Val-Tyr-Phe(NO2)-Glu-Ala-Nle-NH2 (Bachem Bioscience, Inc.). (See Peranteau et al., D.H. (1995) Anal. Biochem.).
The reaction was initiated by the addition of 5 μl of substrate stock solution in water. Increase in fluorescence intensity at the emission maximum of 306 nm (excitation wavelength was 277 nm) was monitored as a function of time using Aminco Bowman-2 luminescence spectrometer (SLM Instruments, Inc.). The initial rate of hydrolysis was calculated by second degree polynomial fit using SLM AB2 2.0 operating software.
as §3, with “used. (See Williams and Morrison (1979), In: Methods of Enzymol. 63, (ed. D. L. Purich), 437-467, Academic Press, NY, London). […]” for “used.”
This example describes the inhibitory activity of compounds 35 (FIG. 5A), 36 (FIG. 5B), 37 (FIG. 5C) and 38 (FIG. 5D). In accordance with the technique disclosed in Example 13 above, the inhibitory activity of these compounds was tested against proteases of the wild-type HIV-1. Compound 36, 37 and 38 were also tested against proteases containing the deleterious drug resistance associated mutations V82F/I84V and G48V/V82A. Fitness was determined in accordance with Example 13.

[5] = system: HIV-1LAI; assay: PHA-PBMC assay, p24 Gag protein production; assay type: cell-based; conditions: HIV-1LAI; PBMC/p24, day 7 (Table 8)
[6] = system: HIV-1BAL; assay: PHA-PBMC assay, p24 Gag protein production; assay type: cell-based; conditions: HIV-1Ba-L; PBMC/p24, day 7 (Table 8)
[7] = system: HIV-1LAI; assay: MT-2 cells, MTT assay; assay type: cell-based; conditions: HIV-1LAI; MT-2/MTT, day 7
Description: All drug sensitivities were performed in triplicate. […] The IC50's were determined using the MTT assay on day 7 of culture. All sensitivities were determined in […].

[8] = system: wild-type HIV; assay: wild-type antiretroviral activity (Table 4); conditions: Human immunodeficiency virus 1, read-out: ID50

| SMILES | Ki [1] [nM] | KI-wt/KI-mut [2] | Fitness [2] | KI-wt/KI-mut [3] | Ki [3] [nM] | KI-wt/KI-mut [4] | Ki [4] [nM] | Fitness [4] | IC50 [5] [nM] | IC50 [6] [nM] | IC50 [7] [nM] | IC50 [8] [nM] |
| --- | --- | --- | --- | --- | --- | --- | --- | --- | --- | --- | --- | --- |
| CC(C)CN(C[C@@H](O)[C@H](Cc1ccccc1)NC(=O)O[C@H]1CO[C@H]2OCC[C@H]21)S(=O)(=O)c1ccc(CO)cc1 [Compound 37] | 0.0257 | 2.1 | 0.3 | 1 | 0.012 | 5.3 | 0.064 | 1.4 | 2.7 | 3 | 5.3 | – |
| COc1ccc(S(=O)(=O)N(CC(C)C)CC(O)C(Cc2ccccc2)NC(=O)OC2COC3OCCC23)cc1 (stereo not shown) | – | – | – | – | – | – | – | – | – | – | – | 1.4 |
| CC(C)CN(C[C@@H](O)[C@H](Cc1ccccc1)NC(=O)O[C@H]1CO[C@H]2OCC[C@H]21)S(=O)(=O)c1cccc(CO)c1 [Compound 38] | 0.0668 | >13 | >2.1 | – | > 0.005 | >6.8 | 0.034 | >1.8 | 8 | 9.3 | 28 | – |
